Measurements published in patent publication US7223758B2, “Pyridazine derivative, pharmaceutical composition thereof, its pharmaceutical use, and process for its preparation” (Sanofi-Aventis, priority 2002, dated 2007).
pIC50: −log10 of the molar value.

Target: T1, cathepsin K (Homo sapiens, UniProt P43235)
T1 sequence (P43235 115-329): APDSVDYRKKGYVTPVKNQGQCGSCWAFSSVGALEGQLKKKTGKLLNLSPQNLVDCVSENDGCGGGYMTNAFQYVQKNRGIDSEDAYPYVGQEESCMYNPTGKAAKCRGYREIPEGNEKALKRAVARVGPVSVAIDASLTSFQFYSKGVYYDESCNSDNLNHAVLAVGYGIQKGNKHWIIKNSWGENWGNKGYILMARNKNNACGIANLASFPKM
Assay: Study of the inhibition of cathepsin K (fluorogenic substrate Z-Val-Arg-AMC)
Type: biochemical
Conditions: cathepsin K 5 ng/ml, substrate Z-Val-Arg-AMC 20 μM, pH 5.5, two hours at room temperature; concentration range from 50 to 0.5 μM
Protocol: Pharmacological study of the products of the invention Study of the inhibition of cathepsin K
The test products (10 mM) are diluted to 1 mM in DMSO and distributed in polystyrene Nunc 96-well plates at a rate of 2 μl per well. Column 12 of the plate is reserved for the controls and thus receives […] of DMSO (without products) per well. The plates are stored at −80° C. and thawed on the day of the experiment.
The products are diluted to 50 μM by addition of 38 μl of reaction buffer: 100 mM sodium acetate, 5 mM EDTA, 1 mM DTT, pH 5.5. The addition and all the pipetting are performed with a 96-tip CybiWell pipette. After mixing the solutions, each product is transferred into 2 wells (duplicates) of a black Greiner 384-well plate at a rate of 10 μl per well. Two 96-well plates can thus be tested in one 384-well plate.
A solution of substrate, Z-Val-Arg-AMC (Calbiochem), at a concentration of 50 μm is prepared in the reaction buffer. The substrate is the distributed among all the wells of the 384-well plate (20 μl per well).
A solution of cathepsin K at a concentration of 12.5 ng/ml is prepared in the reaction buffer and distributed among all the wells of the 384-well plate (20 μl per well) except for the 16 wells serving as 100% inhibition controls (columns 23 and 24, lines I to P), which receive 20 μl of enzyme-free buffer. […] are performed in columns 23 and 24, lines A to H, which contain no products.
The plates are then incubated for two hours at room temperature, and then read on a Fluoroskan (Labsystems): excitation 390 nm; emission 460 nm.
The final concentrations of each of the reagents are: Products 10 μM, Substrate 20 μM, enzyme 5 ng/ml.
The percentages of inhibition for each of the products are calculated by using the points at 0 and 100% inhibition of each plate as references. The products showing significant inhibition are then retested over a concentration range from 50 to 0.5 μM to determine an IC50.

| pIC50 | Compound |
| --- | --- |
| 5.00 to 6.00 | N#CC(NC(=O)[C@@H]1CCCN(C(=O)OCc2ccccc2)N1C(=O)CCNC(=O)Cc1ccccc1)c1ccccc1 (stereo partly drawn) [Example 10, (phenylmethyl) (3S)-3-[[(cyanophenylmethyl)amino]carbonyl]-2-[1-oxo-3-[(phenylacetyl)amino]propyl]tetrahydro-1(2H)-pyridazinecarboxylate] |
| 5.00 to 6.00 | N#CC(NC(=O)[C@@H]1CCCNN1C(=O)CCNC(=O)Cc1ccccc1)c1ccccc1 (stereo partly drawn) [Example 11, (3S)-N-(cyanophenyl-methyl)-2-[1-oxo-3-[(phenylacetyl)amino]propyl]hexa-hydro-3-pyridazinecarboxamide] |
| 5.00 to 6.00 | N#CCNC(=O)[C@@H]1CCCN(C(=O)OCc2ccccc2)N1C(=O)CCNC(=O)Cc1ccccc1 [Example 12] |
| 5.00 to 6.00 | N#CNC(=O)[C@@H]1CCCNN1C(=O)CCNC(=O)Cc1ccccc1 [Example 13, (3S)-N-cyano-2-[1-oxo-3-[(phenylacetyl)amino]propyl]hexahydro-3-pyridazinecarb-oxamide] |
| > 6.00 | N#CC(NC(=O)[C@@H]1CCCNN1C(=O)CCc1ccccc1)c1cccc(Oc2ccccc2)c1 (stereo partly drawn) [Example 15, (3S)-N-[cyano(3-phenoxyphenyl)methyl]-2-(1-oxo-3-phenylpropyl)hexa-hydro-3-pyridazinecarboxamide] |
| 5.00 to 6.00 | (phenylmethyl) (3S)-3-[[[cyano(3-phenoxyphenyl)methyl]amino]carbonyl]-2-[3-phenyl-1-oxopropyl]tetrahydro-1(2H)-pyridazine-carboxylate [Example 14] |

Second part, the compound before the results:

| Compound | pIC50 |
| --- | --- |
| N#CC(NC(=O)[C@@H]1CCCNN1C(=O)CCNC(=O)Cc1ccccc1)c1cccc(Oc2ccccc2)c1 (mixture of isomers) [Example 5, (3S)-2-[3-[(phenylacetyl)amino]-1-oxopropyl]-N-[cyano-(3-phenoxyphenyl)methyl]hexahydro-3-pyridazine-carboxamide] | > 6.00 |
| N#CC(OC(=O)[C@@H]1CCCN(C(=O)OCc2ccccc2)N1C(=O)CCNC(=O)Cc1ccccc1)c1cccc(Oc2ccccc2)c1 (mixture of isomers) [Example 7, 1-(phenylmethyl)-3-[(R)-cyano(3-phenoxyphenyl)methyl](3S)-2-[1-oxo-3-[(phenylacetyl)amino]propyl]tetrahydro-1,3(2H)-pyridazinedicarboxylate] | 5.00 to 6.00 |
| N#CC(OC(=O)[C@@H]1CCCNN1C(=O)CCNC(=O)Cc1ccccc1)c1cccc(Oc2ccccc2)c1 (mixture of isomers) [Example 8, 3-[cyano(3-phenoxyphenyl)methyl] (3S)-2-[1-oxo-3-[(phenylacetyl)-amino]propyl]tetrahydro-1,3-(2H)-pyridazinecarboxylate] | 5.00 to 6.00 |
| N#CC(NC(=O)[C@@H]1CCCN(C(=O)OCc2ccccc2)N1C(=O)CCNC(=O)Cc1ccccc1)c1cccc(Oc2ccccc2)c1 (stereo partly drawn) [Example 4, (phenylmethyl) (3S)-2-[1-oxo-3-[(phenylacetyl)amino]propyl]-3-[[[cyano(3-phenoxy-phenyl)methyl]amino]carbonyl]tetrahydro-1(2H)pyridazine-carboxylate] | 5.00 to 6.00 |
| N#CC(OC(=O)[C@@H]1CCCN(C(=O)OCc2ccccc2)N1C(=O)CCNC(=O)Cc1ccccc1)c1cccc(Oc2ccc(Br)cc2)c1 (stereo partly drawn) [Example 9, 1-(phenylmethyl)-3-[cyano-3-[(4-bromophenoxy)phenyl]-methyl] (3S)2-[1-oxo-3-[(phenylacetyl)amino]propyl]-tetrahydro-1,3(2H)-pyridazinedicarboxylate] | 5.00 to 6.00 |
